Experimental data taken from patent US5789186A, “Marker for cerebral apoplexy” (Oriental Yeast Co., Ltd., priority 1995, dated 1998).
Like-named read-outs stand apart in the source and are kept apart here.

Experiments:
Format in all cases: biochemical
PGAM-B = PGAM-B (Homo sapiens, UniProt P18669); assay: Effect of potassium tetrathionate on PGAM-B standard, automatic assay method (NADH decrease rate assay); conditions: for activity at 1900 µM / activity at 3800 µM / activity at 7600 µM: 5 min, PGAM-B standard (pooled serum base), 5 min reaction, read-out: PGAM-B activity relative to 0 mM potassium tetrathionate (=100); for activity at 1900 µM: final concentration 1.9 mM; for activity at 3800 µM: final concentration 3.8 mM; for activity at 7600 µM: final concentration 7.6 mM
Description: (§1) Namely, 3-phosphoglycerate (Glycerate-3-P) is converted into 2-phosphoglycerate (Glycerate-2-P) by PGAM-B in the presence of 2,3-bisphosphoglycerate (Glycerate-2,3-P2) and the resulting product is converted into PEP and H2 O by enolase. Then, PEP is converted into pyruvate and ATP by pyruvate kinase (PK) in the presence of ADP, and lactate dehydrogenase (LDH) is acted on pyruvate thus obtained in the presence of NADH to conduct the rate assay of the decrease of NADH.
(§2) Effect of potassium tetrathionate on PGAM-B and PGAM-M was examined by an automatic assay method.
(§3) Standard preparations of the B-type and M-type isozymes (pooled serum base) were used as samples. These were diluted 1/1 to 1/8 with physiological saline to serve as samples. To the thus prepared samples were added potassium tetrathionate of various concentrations. After the reaction was carried out for 5 minutes, the quantity of the B-type and M-type PGAMs were determined by the automatic assay method.
(§4) The quantity of PGAM-B and PGAM-M were respectively determined using the reagent of Example 2 by the automatic assay method, and the results shown in Table 2 below were obtained.
(§5) Potassium tetrathionate (molecular weight of 302.4) was added to and dissolved in the PGAM activity assay reagent (R-1) so as to give a concentration of 2.25 mM (final concentration of 1.9 mM) (15 mg of potassium tetrathionate was dissolved in 22 ml of the R-1 reagent) and the M-type isozyme was inactivated to prepare a B-type PGAM activity assay reagent.
(§6) Five μl of a serum sample was combined with 250 μl of the solution of Reagent 1 (R-1) in which potassium tetrathionate was dissolved, and the mixture was allowed to stand for 5 minutes. During this period, the M-type (and MB-type) PGAM was inactivated and inhibited, and then the B-type PGAM activity was determined using Reagent 2 (R-2).
(§7) The reaction was initiated (substrate start) by adding 41 μl of Reagent 2 (R-2) because it contained glycerate-3-phosphate (substrate). The assay was started about 1.5 minutes after the addition of Reagent 2.
(§8) The assay was carried out using Hitachi 7150 model automatic analyzer with setting the assay code to RATE-A: 32-39 and the measuring temperature to 37° C. The decrease in absorbance A 340 nm associated with the decrease of NADH was measured for about 1.5 minutes. It should be noted that the assay was carried out at the secondary wavelength of 405 nm.
(§9) One unit of the enzyme (1 U: 1 unit) was defined as the amount of the enzyme that reduces 1 μmol of NADH for 1 minute at 37° C. Actual measured values were calculated by multiplying the rate assay value by a calibrating factor (K FACTOR).

PGAM-M = PGAM-M (Homo sapiens, UniProt P15259); assay: Effect of potassium tetrathionate on PGAM-M standard, automatic assay method (NADH decrease rate assay)
Description: as §1, §2, §3, §4, §5, §6, §7, §8, §9

B-type isozyme (PGAM-BB) = assay: Inhibition test using purified PGAM isozymes, B-type; conditions: treatment with tetrathionic acid as PGAM inhibitor
Description: (§10) The assay method according to the present invention comprises treating a blood sample such as serum with a PGAM inhibitor to inactivate a specific isozyme, and then determining residual PGAM activity. For example, when tetrathionic acid is used as the PGAM inhibitor, almost 100% of M-type isozyme activity and about 50% of MB-type isozyme activity are lost, while B-type isozyme activity is hardly lost. Therefore, the B-type isozyme can be separately quantified by adding tetrathionic acid to serum to inactivate the M-type isozyme and measuring residual PGAM activity.
(§11) Incidently, according to the inhibition test using purified PGAM isozymes, only 50% of MB-type isozyme activity is lost by the treatment with tetrathionic acid, and 50% of the activity remains. However, since most of PGAM activities in normal serum and cerebral tissues are attributed to the B-type isozyme, residual activity of the MB-type isozyme can be practically disregarded in the case of diagnosis of cerebral apoplexy in a biological sample.

M-type isozyme (PGAM-MM) = assay: Inhibition test using purified PGAM isozymes, M-type; conditions: treatment with tetrathionic acid as PGAM inhibitor
Description: as §10, §11

[1] = dilution rate 1/1 (control 183 U/L)
[2] = dilution rate 1/2 (control 91 U/L)
[3] = dilution rate 1/4 (control 46 U/L)
[4] = dilution rate 1/8 (control 22 U/L)

Sequence of PGAM-M (P15259 whole entry): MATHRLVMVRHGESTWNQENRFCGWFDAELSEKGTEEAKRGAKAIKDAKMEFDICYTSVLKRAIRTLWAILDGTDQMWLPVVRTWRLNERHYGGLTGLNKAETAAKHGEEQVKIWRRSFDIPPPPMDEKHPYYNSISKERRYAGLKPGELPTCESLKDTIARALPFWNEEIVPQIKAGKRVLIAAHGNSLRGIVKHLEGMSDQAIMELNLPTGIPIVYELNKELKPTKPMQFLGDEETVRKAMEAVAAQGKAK
Sequence of PGAM-B (P18669 whole entry): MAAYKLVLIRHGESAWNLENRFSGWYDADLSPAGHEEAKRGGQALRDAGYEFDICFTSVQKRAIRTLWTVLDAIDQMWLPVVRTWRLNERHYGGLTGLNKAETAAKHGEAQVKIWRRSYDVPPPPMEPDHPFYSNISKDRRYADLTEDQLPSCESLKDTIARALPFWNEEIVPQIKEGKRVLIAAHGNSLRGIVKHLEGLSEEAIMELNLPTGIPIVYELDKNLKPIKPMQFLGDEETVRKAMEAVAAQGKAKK

Row | SMILES | activity at 1900 µM (PGAM-B; [1]) | activity at 3800 µM (PGAM-B; [1]) | activity at 7600 µM (PGAM-B; [1]) | activity at 1900 µM (PGAM-B; [2]) | activity at 3800 µM (PGAM-B; [2]) | activity at 7600 µM (PGAM-B; [2]) | activity at 1900 µM (PGAM-B; [3]) | activity at 3800 µM (PGAM-B; [3]) | activity at 7600 µM (PGAM-B; [3]) | activity at 1900 µM (PGAM-B; [4]) | activity at 3800 µM (PGAM-B; [4]) | activity at 7600 µM (PGAM-B; [4]) | Effect on the B-type isozyme (in words) (PGAM-B; summary of Table 2) | activity at 1900 µM (PGAM-M; 5 min, PGAM-M standard (pooled serum base), dilution rate 1/8 (control 332 U/L), final concentration 1.9 mM, 5 min reaction, read-out: PGAM-M activity relative to 0 mM potassium tetrathionate (=100)) | activity at 3800 µM (PGAM-M; 5 min, PGAM-M standard (pooled serum base), dilution rate 1/8 (control 332 U/L), final concentration 3.8 mM, 5 min reaction, read-out: PGAM-M activity relative to 0 mM potassium tetrathionate (=100)) | activity at 7600 µM (PGAM-M; 5 min, PGAM-M standard (pooled serum base), dilution rate 1/8 (control 332 U/L), final concentration 7.6 mM, 5 min reaction, read-out: PGAM-M activity relative to 0 mM potassium tetrathionate (=100)) | Effect on the M-type isozyme (in words) (PGAM-M; summary of Table 2) | B-type isozyme activity lost (in words) (B-type isozyme (PGAM-BB)) | M-type isozyme activity lost (M-type isozyme (PGAM-MM))
1 | O=S(=O)([O-])SSS(=O)(=O)[O-].[K+].[K+] [potassium tetrathionate] | 98% | 92% | 81% | 98% | 91% | 80% | 97% | 86% | 59% | 93% | 93% | 75% | no effect was observed | 0% | 0% | 0% | specifically inactivated | – | –
2 | O=S(=O)(O)SSS(=O)(=O)O [tetrathionic acid] | – | – | – | – | – | – | – | – | – | – | – | – | – | – | – | – | – | hardly lost | ~100%
